Experiment: Odour Detection Threshold (ODT) / odour threshold
Conditions: for ODT: Odour Detection Threshold, table of compounds of Formula I

## CC/C=C/c1ccc2c(c1)OCC(=O)CO2 [Example 1, (1′E)-7-(But-1′-enyl)-2H-benzo[b][1,4]dioxepin-3(4H)-one]
  Odour threshold: 0.00157 ng/L air
  ODT: 0.00157 ng/L

## CC(C)C/C=C/c1ccc2c(c1)OCC(=O)CO2 [Example 2, (1′E)-7-(4′-Methylpent-1′-enyl)-2H-benzo[b][1,4]dioxepin-3(4H)-one]
  Odour threshold: 0.00025 ng/L air
  ODT: 0.00025 ng/L

## CCC/C=C/c1ccc2c(c1)OCC(=O)CO2 [Example 5, (1′E)-7-(Pent-1′-enyl)-2H-benzo[b][1,4]dioxepin-3(4H)-one]
  Odour threshold: 0.00314 ng/L air
  ODT: 0.00314 ng/L

## CCC(C)/C=C/c1ccc2c(c1)OCC(=O)CO2 (stereo not shown) [Example 8, (1′E)-7-(3′-Methylpent-1′-enyl)-2H-benzo[b][1,4]-dioxepin-3(4H)-one]
  Odour threshold: 0.021 ng/L air
  ODT: 0.021 ng/L

## CC(C)(C)C/C=C/c1ccc2c(c1)OCC(=O)CO2 [Example 6, (1′E)-7-(4′,4′-Dimethylpent-1′-enyl)-2H-benzo[b][1,4]dioxepin-3(4H)-one]
  Odour threshold: 0.042 ng/L air
  ODT: 0.042 ng/L

## CC(C)/C=C/c1ccc2c(c1)OCC(=O)CO2 [Example 3, (1′E)-7-(3′-Methylbut-1′-enyl)-2H-benzo[b][1,4]dioxepin-3(4H)-one]
  Odour threshold: 0.015 ng/L air
  ODT: 0.015 ng/L

## CC(C)=Cc1ccc2c(c1)OCC(=O)CO2 [Example 7, (1′E)-7-(2′-Methylprop-1′-enyl)-2H-benzo[b][1,4]dioxepin-3(4H)-one]
  Odour threshold: 0.42 ng/L air
  ODT: 0.42 ng/L

## C/C=C/C=C/c1ccc2c(c1)OCC(=O)CO2 [Example 4, (1′E,3′E)-7-(Penta-1′,3′-dienyl)-2H-benzo[b][1,4]dioxepin-3(4H)-one]
  Odour threshold: 0.000141 ng/L air
  ODT: 0.000141 ng/L
